Laboratory results as given in ChEMBL document CHEMBL4665756, “Synthesis, crystal structure and biological activity of novel analogues of tricyclic drugs” (Bioorg Med Chem Lett, 2020).

Experiments:
[1] = target: Sodium-dependent serotonin transporter (Homo sapiens, UniProt P31645); assay: Binding affinity to SERT (unknown origin)
[2] = target: Histamine H1 receptor (Homo sapiens, UniProt P35367); assay: Binding affinity to H1 receptor (unknown origin)
[3] = target: 5-hydroxytryptamine receptor 7 (Homo sapiens, UniProt P34969); assay: Binding affinity to 5HT7 receptor (unknown origin)
[4] = target: 5-hydroxytryptamine receptor 2A (Homo sapiens, UniProt P28223); assay: Binding affinity to 5HT2A receptor (unknown origin)
[5] = target: D(2) dopamine receptor (Homo sapiens, UniProt P14416); assay: Binding affinity to D2 receptor (unknown origin)
[6] = target: 5-hydroxytryptamine receptor 6 (Homo sapiens, UniProt P50406); assay: Binding affinity to 5HT6 receptor (unknown origin)
[7] = target: T1, 5-hydroxytryptamine receptor 1A (Homo sapiens, UniProt P08908); assay: Binding affinity to 5HT1A receptor (unknown origin)
T1 sequence (P08908 whole entry): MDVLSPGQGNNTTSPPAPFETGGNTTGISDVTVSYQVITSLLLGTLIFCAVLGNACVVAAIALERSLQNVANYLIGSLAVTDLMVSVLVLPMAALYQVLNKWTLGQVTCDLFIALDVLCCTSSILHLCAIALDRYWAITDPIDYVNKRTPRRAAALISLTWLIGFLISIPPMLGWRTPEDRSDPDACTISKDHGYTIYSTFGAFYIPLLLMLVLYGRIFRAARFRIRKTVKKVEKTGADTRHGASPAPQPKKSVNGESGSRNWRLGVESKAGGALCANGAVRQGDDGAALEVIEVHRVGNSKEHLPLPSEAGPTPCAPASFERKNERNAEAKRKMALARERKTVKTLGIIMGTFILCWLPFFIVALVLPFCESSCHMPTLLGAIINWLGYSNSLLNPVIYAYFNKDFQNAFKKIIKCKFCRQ

Sequence of Sodium-dependent serotonin transporter (P31645 whole entry): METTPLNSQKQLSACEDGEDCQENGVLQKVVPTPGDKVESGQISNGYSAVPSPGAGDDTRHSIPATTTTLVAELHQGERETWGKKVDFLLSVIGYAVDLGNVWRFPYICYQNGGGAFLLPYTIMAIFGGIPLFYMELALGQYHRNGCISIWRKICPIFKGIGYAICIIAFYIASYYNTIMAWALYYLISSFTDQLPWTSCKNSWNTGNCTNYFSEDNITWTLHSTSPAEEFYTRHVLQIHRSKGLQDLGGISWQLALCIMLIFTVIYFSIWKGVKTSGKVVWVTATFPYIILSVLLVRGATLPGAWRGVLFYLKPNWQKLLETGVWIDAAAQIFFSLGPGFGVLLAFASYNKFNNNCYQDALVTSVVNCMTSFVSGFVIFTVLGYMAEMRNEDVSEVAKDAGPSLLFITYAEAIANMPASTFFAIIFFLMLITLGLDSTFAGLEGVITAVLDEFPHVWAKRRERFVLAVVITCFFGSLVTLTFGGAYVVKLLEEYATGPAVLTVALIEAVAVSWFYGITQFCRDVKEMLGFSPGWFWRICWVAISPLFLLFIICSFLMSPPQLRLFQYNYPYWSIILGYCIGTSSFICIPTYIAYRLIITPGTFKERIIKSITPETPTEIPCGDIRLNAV
Sequence of 5-hydroxytryptamine receptor 7 (P34969 whole entry): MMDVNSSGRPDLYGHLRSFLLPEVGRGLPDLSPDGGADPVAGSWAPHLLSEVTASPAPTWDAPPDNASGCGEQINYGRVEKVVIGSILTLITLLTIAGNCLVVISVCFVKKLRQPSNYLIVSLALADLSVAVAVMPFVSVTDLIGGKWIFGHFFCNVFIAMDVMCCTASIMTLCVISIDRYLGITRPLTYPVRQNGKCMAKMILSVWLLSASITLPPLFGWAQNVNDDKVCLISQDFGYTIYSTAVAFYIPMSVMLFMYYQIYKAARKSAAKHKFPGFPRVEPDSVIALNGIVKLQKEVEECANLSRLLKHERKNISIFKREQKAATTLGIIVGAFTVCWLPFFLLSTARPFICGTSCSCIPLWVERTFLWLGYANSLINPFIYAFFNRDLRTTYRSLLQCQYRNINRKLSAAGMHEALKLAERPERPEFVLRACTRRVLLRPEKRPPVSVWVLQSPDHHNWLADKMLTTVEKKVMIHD
Sequence of 5-hydroxytryptamine receptor 6 (P50406 whole entry): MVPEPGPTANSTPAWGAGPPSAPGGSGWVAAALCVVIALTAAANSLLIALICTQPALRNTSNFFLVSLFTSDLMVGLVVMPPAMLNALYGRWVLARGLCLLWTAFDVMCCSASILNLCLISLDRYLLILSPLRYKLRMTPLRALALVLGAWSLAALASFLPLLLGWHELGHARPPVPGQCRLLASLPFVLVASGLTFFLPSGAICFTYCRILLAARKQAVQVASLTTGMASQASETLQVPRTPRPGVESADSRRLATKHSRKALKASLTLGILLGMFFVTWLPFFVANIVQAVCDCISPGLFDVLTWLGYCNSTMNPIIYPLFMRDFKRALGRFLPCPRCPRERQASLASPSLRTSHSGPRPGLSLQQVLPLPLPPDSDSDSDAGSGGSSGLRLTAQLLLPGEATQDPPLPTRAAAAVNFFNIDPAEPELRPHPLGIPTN
Sequence of Histamine H1 receptor (P35367 whole entry): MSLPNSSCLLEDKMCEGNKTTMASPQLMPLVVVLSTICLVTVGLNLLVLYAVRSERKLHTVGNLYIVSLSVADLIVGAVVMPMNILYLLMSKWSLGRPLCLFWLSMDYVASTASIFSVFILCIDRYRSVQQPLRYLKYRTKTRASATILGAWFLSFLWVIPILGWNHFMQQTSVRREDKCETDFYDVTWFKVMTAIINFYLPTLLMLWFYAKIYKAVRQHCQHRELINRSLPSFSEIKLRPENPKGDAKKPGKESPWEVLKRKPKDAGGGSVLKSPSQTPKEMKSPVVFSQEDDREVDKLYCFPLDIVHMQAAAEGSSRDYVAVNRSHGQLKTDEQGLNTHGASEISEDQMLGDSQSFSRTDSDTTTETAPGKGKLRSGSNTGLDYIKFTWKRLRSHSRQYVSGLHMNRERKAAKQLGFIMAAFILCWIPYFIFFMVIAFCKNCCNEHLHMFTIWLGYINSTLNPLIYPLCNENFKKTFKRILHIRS
Sequence of D(2) dopamine receptor (P14416 whole entry): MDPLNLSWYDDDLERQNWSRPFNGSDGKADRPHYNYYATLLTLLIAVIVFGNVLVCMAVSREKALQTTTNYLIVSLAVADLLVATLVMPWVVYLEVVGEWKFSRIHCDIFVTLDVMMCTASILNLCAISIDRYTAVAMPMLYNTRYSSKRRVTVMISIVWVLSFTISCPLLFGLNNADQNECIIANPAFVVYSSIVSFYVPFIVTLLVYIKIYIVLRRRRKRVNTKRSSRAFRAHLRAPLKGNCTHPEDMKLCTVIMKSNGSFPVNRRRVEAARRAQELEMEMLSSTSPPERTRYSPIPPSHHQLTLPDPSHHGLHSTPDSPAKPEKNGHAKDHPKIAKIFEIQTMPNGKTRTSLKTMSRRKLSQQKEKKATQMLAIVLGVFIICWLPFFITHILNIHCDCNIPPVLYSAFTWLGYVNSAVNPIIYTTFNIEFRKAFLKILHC
Sequence of 5-hydroxytryptamine receptor 2A (P28223 whole entry): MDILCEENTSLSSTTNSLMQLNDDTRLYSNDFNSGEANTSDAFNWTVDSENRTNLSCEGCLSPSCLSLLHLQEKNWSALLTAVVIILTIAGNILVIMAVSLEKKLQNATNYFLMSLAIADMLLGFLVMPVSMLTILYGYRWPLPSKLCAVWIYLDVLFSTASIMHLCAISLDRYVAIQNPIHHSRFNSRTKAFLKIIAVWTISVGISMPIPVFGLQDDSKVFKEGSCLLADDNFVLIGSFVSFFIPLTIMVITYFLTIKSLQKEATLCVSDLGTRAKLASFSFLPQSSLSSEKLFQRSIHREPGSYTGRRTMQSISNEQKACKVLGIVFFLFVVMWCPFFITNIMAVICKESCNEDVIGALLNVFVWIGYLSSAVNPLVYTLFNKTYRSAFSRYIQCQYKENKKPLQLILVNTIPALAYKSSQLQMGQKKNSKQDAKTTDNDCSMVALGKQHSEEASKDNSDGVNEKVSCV

| SMILES | Ki ([1]; read-out: Ki) [µM] | Ki ([2]; read-out: Ki) [µM] | Ki [3] [µM] | Ki [4] [µM] | Ki [2] | Ki [5] [µM] | Ki [6] [µM] | Ki [7] [µM] | Ki [1] |
| --- | --- | --- | --- | --- | --- | --- | --- | --- | --- |
| CN(C)CCCN1C(=O)c2ccccc2CCc2ccccc21 | > 100 | 0.81 |  |  |  |  |  |  |  |
| CN(C)CCN1C(=O)c2ccccc2N(C)C(=O)c2ccccc21 |  | > 10 | > 100 | > 100 |  | 65.3 | 40.4 | > 100 | Not Active |
| CN1CCN(CCCN2C(=O)c3ccccc3/C=C\c3ccccc32)CC1 |  | > 5 | > 100 | 48.3 |  | 7.5 | 21.1 | 87.7 | Not Active |
| CN(C)CCCN1C(=O)c2ccccc2/C=C\c2ccccc21 | 36.9 | 0.43 | > 100 | 17.1 |  | 9 | 23.4 | 41.6 |  |
| CN(C)CCCN1C(=O)c2ccccc2C(=O)N(Cc2ccccc2)c2ccccc21 | > 100 |  |  |  | Not Active |  |  |  |  |
| CN(C)CCN1C(=O)c2ccccc2N(C)c2ccccc21 [DIBENZEPIN] | 10.9 | 0.02 | 12.3 | 7.2 |  | 30.2 | 3.3 | 2.5 |  |
| COc1cc2c(cc1OC)N(CCN(C)C)C(=O)c1ccccc1N(C)C2=O | > 100 | > 10 |  |  |  |  |  |  |  |
| CN(C)CCCN1C(=O)c2ccccc2N(C)C(=O)c2ccccc21 |  | > 10 |  |  |  |  |  |  | Not Active |
| CN(C)CCN1C(=O)c2ccccc2/C=C\c2ccccc21 | 4.6 | 0.12 | 85.2 | 74.4 |  | 11.6 | 20.1 | 77.2 |  |

Results, then the compound that gave them:

| Ki ([1]; read-out: Ki) [µM] | Ki ([2]; read-out: Ki) [µM] | Ki [3] [µM] | Ki [4] [µM] | Ki [2] | Ki [5] [µM] | Ki [6] [µM] | Ki [7] [µM] | Ki [1] | SMILES |
| --- | --- | --- | --- | --- | --- | --- | --- | --- | --- |
| > 100 |  | > 100 | > 100 | Not Active | 19.1 | 75.3 | 39.4 |  | O=C1c2ccccc2/C=C\c2ccccc2N1CCCN1CCOCC1 |
|  |  |  |  | Not Active |  |  |  | Not Active | CN(C)CCN1C(=O)c2ccccc2C(=O)N(Cc2ccccc2)c2ccccc21 |
|  | > 5 |  |  |  |  |  |  | Not Active | CN(C)CCN1C(=O)c2cc(Cl)ccc2N(C)C(=O)c2cc3ccccc3cc21 |
| 12.4 | 0.29 |  |  |  |  |  |  |  | CN(C)CCN1C(=O)c2ccccc2CCc2ccccc21 |
|  |  |  |  | Not Active |  |  |  | Not Active | CN(C)CCCN1C(=O)c2cc(Cl)ccc2N(C)C(=O)c2cc3ccccc3cc21 |
|  |  |  |  | Not Active |  |  |  | Not Active | COc1cc2c(cc1OC)N(CCCN(C)C)C(=O)c1ccccc1N(C)C2=O |
